Data on three compounds can be found in ChEMBL document CHEMBL5126594, “Entry inhibition of hepatitis B virus using cyclosporin O derivatives with peptoid side chain incorporation” (Bioorg Med Chem, 2022).

Bounds are passed on as bounds.

For one data set, the target named is CYP2D6 (Homo sapiens, UniProt P10635). Nature of the data set: Inhibition of human CYP2D6 at 10 uM preincubated for 10 mins followed by NADPH addition and measured after 20 mins by luciferin reagent based luminescence analysis. It is filed as ADME. The note with it: time 30 min.
Another data set concerns the target CYP2C19 (Homo sapiens, UniProt P33261). Description: Inhibition of human CYP2C19 at 10 uM preincubated for 10 mins followed by NADPH addition and measured after 20 mins by luciferin reagent based luminescence analysis. It is filed as ADME. The note with it: time 30 min.
Another data set has as its target CYP2C9 (Homo sapiens, UniProt P11712). Nature of the data set: Inhibition of human CYP2C9 at 10 uM preincubated for 10 mins followed by NADPH addition and measured after 20 mins by luciferin reagent based luminescence analysis. It is filed as ADME. The note with it: time 30 min.
Data set [1] relates to Hepatitis B virus. Description: Antiviral activity against Hepatitis B virus infected in human HepG2 cells expressing NTCP assessed as inhibition of viral entry by measuring intracellular HBV DNA at 1 uM preincubated with compound for 2 hrs followed by viral infection and measured after 3 hrs by qPCR analysis relative to control. It is filed as functional. The note with it: time 5 hrs. Background: In qPCR the cycle at which signal appears reflects the starting amount.

In a further data set the target is T1, CYP1A2 (Homo sapiens, UniProt P05177).
T1 sequence (P05177 whole entry): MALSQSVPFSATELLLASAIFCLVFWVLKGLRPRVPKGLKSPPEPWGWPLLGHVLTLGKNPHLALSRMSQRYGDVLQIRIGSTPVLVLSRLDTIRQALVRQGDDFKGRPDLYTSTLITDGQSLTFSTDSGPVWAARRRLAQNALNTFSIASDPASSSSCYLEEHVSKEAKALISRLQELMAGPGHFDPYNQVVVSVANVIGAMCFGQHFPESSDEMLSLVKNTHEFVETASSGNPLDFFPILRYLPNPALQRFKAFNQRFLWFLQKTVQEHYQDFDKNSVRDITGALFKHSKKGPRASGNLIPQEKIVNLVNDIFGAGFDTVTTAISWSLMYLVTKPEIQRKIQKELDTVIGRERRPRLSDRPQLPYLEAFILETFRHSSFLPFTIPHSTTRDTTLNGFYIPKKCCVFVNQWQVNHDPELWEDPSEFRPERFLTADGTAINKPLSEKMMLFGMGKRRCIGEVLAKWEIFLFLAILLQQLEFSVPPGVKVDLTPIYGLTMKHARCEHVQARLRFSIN
Description: Inhibition of human CYP1A2 at 10 uM preincubated for 10 mins followed by NADPH addition and measured after 20 mins by luciferin reagent based luminescence analysis. It counts as ADME. The note with it: time 30 min.

Data set [2] deals with T2, hERG (KCNH2) (Homo sapiens, UniProt Q12809). Nature of the data set: in vitro.
Description: Inhibition of hERG at 10 uM incubated for 2 hrs by fluorescence polarization based assay relative to control
Data set [3] can be described thus: Cytotoxicity against human HepG2 cells assessed as reduction in cell viability incubated for 24 hrs by MTS assay. It counts as toxicity, cell-based. The note with it: read-out: LC50.
Data set [4] has as its system Hepatitis B virus. Description: Antiviral activity against Hepatitis B virus infected in human HepG2 cells expressing NTCP assessed as inhibition of viral entry by measuring intracellular HBV DNA preincubated with compound for 2 hrs followed by viral infection and measured after 3 hrs by qPCR analysis. It counts as functional, organism-based.
The next data set deals with CYP3A4 (Homo sapiens, UniProt P08684). Nature of the data set: Inhibition of human CYP3A4 at 10 uM preincubated for 10 mins followed by NADPH addition and measured after 20 mins by luciferin reagent based luminescence analysis. The note with it: time 30 min. It is filed as ADME.
Data set [5] addresses T2, hERG (KCNH2). Description: Inhibition of hERG incubated for 2 hrs by fluorescence polarization based assay. It counts as toxicity. For orientation: The hERG channel carries a current that helps repolarise heart muscle cells.

T2 sequence (Q12809 whole entry): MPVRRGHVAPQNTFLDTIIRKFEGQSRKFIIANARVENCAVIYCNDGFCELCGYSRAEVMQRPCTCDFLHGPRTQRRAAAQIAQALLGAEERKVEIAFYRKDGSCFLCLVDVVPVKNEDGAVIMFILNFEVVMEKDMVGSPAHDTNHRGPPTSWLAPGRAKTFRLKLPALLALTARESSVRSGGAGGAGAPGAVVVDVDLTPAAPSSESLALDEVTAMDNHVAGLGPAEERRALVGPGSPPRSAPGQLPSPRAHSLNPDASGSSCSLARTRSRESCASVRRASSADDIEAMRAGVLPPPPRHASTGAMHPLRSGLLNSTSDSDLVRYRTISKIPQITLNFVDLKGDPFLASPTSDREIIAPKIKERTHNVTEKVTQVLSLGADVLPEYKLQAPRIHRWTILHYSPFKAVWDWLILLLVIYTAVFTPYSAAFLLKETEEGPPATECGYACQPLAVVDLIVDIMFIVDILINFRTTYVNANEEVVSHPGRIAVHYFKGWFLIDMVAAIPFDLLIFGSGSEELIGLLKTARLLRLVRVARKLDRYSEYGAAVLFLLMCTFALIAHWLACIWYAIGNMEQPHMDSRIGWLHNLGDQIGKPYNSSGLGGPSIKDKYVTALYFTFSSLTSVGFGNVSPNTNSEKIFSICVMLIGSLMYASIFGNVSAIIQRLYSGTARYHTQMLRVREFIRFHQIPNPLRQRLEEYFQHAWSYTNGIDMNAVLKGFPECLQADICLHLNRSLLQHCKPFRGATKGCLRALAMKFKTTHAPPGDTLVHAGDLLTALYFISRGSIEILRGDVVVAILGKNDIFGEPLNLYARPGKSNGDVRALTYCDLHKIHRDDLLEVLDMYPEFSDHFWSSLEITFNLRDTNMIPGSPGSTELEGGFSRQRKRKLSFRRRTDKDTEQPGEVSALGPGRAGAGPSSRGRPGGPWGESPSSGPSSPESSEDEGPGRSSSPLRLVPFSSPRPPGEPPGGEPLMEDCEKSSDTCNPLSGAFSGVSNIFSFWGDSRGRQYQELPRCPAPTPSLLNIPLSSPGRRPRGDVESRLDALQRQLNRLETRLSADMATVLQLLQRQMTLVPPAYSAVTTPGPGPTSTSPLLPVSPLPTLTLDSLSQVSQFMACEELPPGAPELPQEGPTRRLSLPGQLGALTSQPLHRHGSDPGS
Chain of CYP2D6 (P10635 whole entry): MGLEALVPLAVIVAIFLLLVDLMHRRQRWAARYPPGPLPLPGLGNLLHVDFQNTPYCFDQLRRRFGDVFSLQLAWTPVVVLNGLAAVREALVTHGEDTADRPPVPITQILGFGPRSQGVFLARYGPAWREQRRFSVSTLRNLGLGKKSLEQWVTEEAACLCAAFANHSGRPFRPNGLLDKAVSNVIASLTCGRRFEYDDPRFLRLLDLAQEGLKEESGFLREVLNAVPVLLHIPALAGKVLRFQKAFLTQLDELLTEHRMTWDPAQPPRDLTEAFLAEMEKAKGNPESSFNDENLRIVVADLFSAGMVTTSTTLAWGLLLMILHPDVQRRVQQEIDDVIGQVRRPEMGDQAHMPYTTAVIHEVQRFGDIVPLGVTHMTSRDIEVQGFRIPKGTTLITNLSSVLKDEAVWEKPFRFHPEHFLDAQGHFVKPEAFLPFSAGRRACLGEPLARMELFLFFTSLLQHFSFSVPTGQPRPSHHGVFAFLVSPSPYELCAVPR
Chain of CYP2C19 (P33261 whole entry): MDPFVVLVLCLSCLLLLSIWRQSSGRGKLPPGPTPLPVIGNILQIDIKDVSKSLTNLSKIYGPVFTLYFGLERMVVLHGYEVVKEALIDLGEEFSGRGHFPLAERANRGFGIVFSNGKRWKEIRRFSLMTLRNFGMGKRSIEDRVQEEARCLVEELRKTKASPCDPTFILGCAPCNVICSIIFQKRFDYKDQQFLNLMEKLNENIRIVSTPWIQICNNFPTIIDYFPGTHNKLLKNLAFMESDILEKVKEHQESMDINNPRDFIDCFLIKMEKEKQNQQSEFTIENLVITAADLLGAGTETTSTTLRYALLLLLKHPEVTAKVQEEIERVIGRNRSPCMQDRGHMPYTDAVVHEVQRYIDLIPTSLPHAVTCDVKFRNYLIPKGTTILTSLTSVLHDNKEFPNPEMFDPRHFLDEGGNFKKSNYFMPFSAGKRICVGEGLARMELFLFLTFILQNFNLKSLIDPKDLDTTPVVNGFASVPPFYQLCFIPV
Chain of CYP2C9 (P11712 whole entry): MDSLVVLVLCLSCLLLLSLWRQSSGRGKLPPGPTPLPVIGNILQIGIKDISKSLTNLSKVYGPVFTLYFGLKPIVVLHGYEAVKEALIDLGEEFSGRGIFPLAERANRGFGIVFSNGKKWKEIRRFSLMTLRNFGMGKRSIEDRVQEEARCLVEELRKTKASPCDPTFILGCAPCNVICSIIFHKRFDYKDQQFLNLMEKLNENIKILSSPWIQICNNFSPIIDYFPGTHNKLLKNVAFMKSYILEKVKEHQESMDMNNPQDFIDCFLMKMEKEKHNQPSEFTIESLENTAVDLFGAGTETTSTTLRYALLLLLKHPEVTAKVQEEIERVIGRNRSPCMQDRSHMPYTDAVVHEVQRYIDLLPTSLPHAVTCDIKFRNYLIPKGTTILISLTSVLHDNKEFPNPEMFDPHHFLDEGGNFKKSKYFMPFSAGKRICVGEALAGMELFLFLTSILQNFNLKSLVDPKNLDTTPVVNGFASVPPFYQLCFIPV
Chain of CYP3A4 (P08684 whole entry): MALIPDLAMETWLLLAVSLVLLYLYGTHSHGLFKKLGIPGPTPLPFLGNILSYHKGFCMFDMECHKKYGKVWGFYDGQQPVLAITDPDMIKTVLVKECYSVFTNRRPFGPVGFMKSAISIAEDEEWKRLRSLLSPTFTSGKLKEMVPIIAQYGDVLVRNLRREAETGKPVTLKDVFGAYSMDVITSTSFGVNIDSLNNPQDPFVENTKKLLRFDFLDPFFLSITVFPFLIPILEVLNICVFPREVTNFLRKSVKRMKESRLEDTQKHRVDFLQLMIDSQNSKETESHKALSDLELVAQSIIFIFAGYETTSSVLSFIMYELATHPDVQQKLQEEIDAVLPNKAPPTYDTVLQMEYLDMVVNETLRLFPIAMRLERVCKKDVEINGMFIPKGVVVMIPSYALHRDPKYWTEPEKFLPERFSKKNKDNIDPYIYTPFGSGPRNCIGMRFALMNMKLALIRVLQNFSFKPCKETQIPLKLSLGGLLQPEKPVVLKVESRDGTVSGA

At CYP2D6, `C=C[C@H]1C[N@@]2CC[C@H]1C[C@@H]2[C@@H](O)c1ccnc2ccc(OC)cc12` [QUINIDINE] gave an inhibition at 20 min, 10 µM of 97.5%.

On to `CN(C)CCC=C1c2ccccc2CCc2ccccc21` [AMITRIPTYLINE], for which the inhibition at 20 min, 10 µM at CYP2C19 is 92.1%.

Regarding `CCC[C@@H]1NC(=O)[C@H](CC(C)C)N(C)C(=O)[C@H](CC(C)C)N(C)C(=O)CN(CCO)C(=O)[C@H](CC(C)C)N(C)C(=O)[C@@H](C)NC(=O)[C@@H](CCC(N)=O)NC(=O)[C@H](CC(C)C)N(C)C(=O)[C@H](C(C)C)NC(=O)[C@H](CC(C)C)N(C)C(=O)CN(C)C1=O`, the inhibition at 20 min, 10 µM on CYP2C9 is 14.8%; against CYP1A2, 8.4%; on CYP2C19, 29.4%; at CYP2D6, 35.1%; at CYP3A4 it was 35.5%. The inhibition at 1 µM in the data set on Hepatitis B virus [1] was 78%. The compound also yielded an inhibition at 2 h, 10 µM against hERG (KCNH2) [2] of 19.1%. Also, the CC50 at 24 h in data set [3] was more than 200 µM. Further, in the data set on Hepatitis B virus [4], the concentration for half-maximal inhibition (IC50) came out at 0.36 µM. The compound also came in with a half-maximal effective concentration (EC50) at 2 h on hERG (KCNH2) [5] of more than 10 µM.

In general, inhibition refers to the change of the read-out against control, counted positive when it falls. A word on the IC50: it is the midpoint of a concentration-inhibition curve. The term EC50 denotes the concentration at which the effect is half-maximal. Low readings indicate higher potency in that assay, high ones lower potency in that assay.
